According to US20050119300A1, “Development of novel regulators of angiogenesis” (priority 2002, published 2005):

Experiments:
[1] = test system: human vascular endothelial cells (HUVECS); experiment: Endothelial cell proliferation, 3H-thymidine uptake assay; format: cell-based; conditions: for % Inhibition vs 10% Serum / Average ([3H]-thymidine incorporation, radioactivity) / Well 1 ([3H]-thymidine incorporation, radioactivity) / Well 2 ([3H]-thymidine incorporation, radioactivity) / Well 3 ([3H]-thymidine incorporation, radioactivity) / Well 4 ([3H]-thymidine incorporation, radioactivity): Table 1A
Procedure: After 20 h, [^3H]-thymidine (2 μCi/ml) was added to the culture medium for 2-4 h. The [^3H]-thymidine incorporation was stopped with ice-cold PBS (3 washes) and the cells were incubated with cold 10% trichloroacetic acid (TCA) for 10 min at 4C. The cells were further incubated with TCA at room temperature for 10 min and washed three times with PBS. The cells were solubilized overnight with 1N NaOH and neutralized with an equivalent amount of 1N HCl before radioactivity was determined. […]

endothelial cells = conditions: reported; cited from earlier work
[2] = test system: vascular endothelial growth factor (VEGF) and basic fibroblast growth factor (bFGF) induced angiogenesis; conditions: has been reported; cited from earlier work
[3] = test system: VEGF-induced and bFGF-induced corneal neovascularization; conditions: further studies, reported; cited from earlier work

O=C1CCC(N2C(=O)c3ccccc3C2=O)C(=O)N1 (stereo not shown) [STD, thalidomide]
effect on endothelial cell proliferation (in words) ([1]; 3H-thymidine uptake): significant inhibition of endothelial cell proliferation | % Inhibition vs 10% Serum ([1]; 38.5 uM): −61.49% | Average ([3H]-thymidine incorporation, radioactivity) ([1]; 38.5 uM): 2700.214 | Well 1 ([3H]-thymidine incorporation, radioactivity) ([1]; 38.5 uM): 1835.938 | Well 2 ([3H]-thymidine incorporation, radioactivity) ([1]; 38.5 uM): 2018.496 | Well 3 ([3H]-thymidine incorporation, radioactivity) ([1]; 38.5 uM): 4751.43 | Well 4 ([3H]-thymidine incorporation, radioactivity) ([1]; 38.5 uM): 2194.99 | % Inhibition vs 10% Serum ([1]; 96 uM): 30.39% | Average ([3H]-thymidine incorporation, radioactivity) ([1]; 96 uM): 1163.906 | Well 1 ([3H]-thymidine incorporation, radioactivity) ([1]; 96 uM): 1736.688 | Well 2 ([3H]-thymidine incorporation, radioactivity) ([1]; 96 uM): 850.094 | Well 3 ([3H]-thymidine incorporation, radioactivity) ([1]; 96 uM): 1083.54 | Well 4 ([3H]-thymidine incorporation, radioactivity) ([1]; 96 uM): 985.3011 | % Inhibition vs 10% Serum ([1]; 192.5 uM): 78.48% | Average ([3H]-thymidine incorporation, radioactivity) ([1]; 192.5 uM): 359.8271 | Well 1 ([3H]-thymidine incorporation, radioactivity) ([1]; 192.5 uM): 255.2577 | Well 2 ([3H]-thymidine incorporation, radioactivity) ([1]; 192.5 uM): 435.4396 | Well 3 ([3H]-thymidine incorporation, radioactivity) ([1]; 192.5 uM): 336.7686 | Well 4 ([3H]-thymidine incorporation, radioactivity) ([1]; 192.5 uM): 411.8425 | % Inhibition vs 10% Serum ([1]; 289 uM): 85.34% | Average ([3H]-thymidine incorporation, radioactivity) ([1]; 289 uM): 245.0808 | Well 1 ([3H]-thymidine incorporation, radioactivity) ([1]; 289 uM): 198.4536 | Well 2 ([3H]-thymidine incorporation, radioactivity) ([1]; 289 uM): 273.8429 | Well 3 ([3H]-thymidine incorporation, radioactivity) ([1]; 289 uM): 272.3789 | Well 4 ([3H]-thymidine incorporation, radioactivity) ([1]; 289 uM): 235.6478 | % Inhibition vs 10% Serum ([1]; 385 uM): 86.86% | Average ([3H]-thymidine incorporation, radioactivity) ([1]; 385 uM): 219.7341 | Well 1 ([3H]-thymidine incorporation, radioactivity) ([1]; 385 uM): 141.5772 | Well 2 ([3H]-thymidine incorporation, radioactivity) ([1]; 385 uM): 255.4687 | Well 3 ([3H]-thymidine incorporation, radioactivity) ([1]; 385 uM): 210.2551 | Well 4 ([3H]-thymidine incorporation, radioactivity) ([1]; 385 uM): 271.6354 | inhibition of the in vitro proliferation of endothelial cells (endothelial cells): ability to inhibit | anti-angiogenic efficacy against VEGF and bFGF induced angiogenesis [2]: significant anti-angiogenic efficacy

O=C1CC[C@H](N2C(=O)c3ccccc3C2=O)C(=O)N1 [S(−)-enantiomer of thalidomide]
anti-angiogenic activity in VEGF-induced and bFGF-induced corneal neovascularization [3]: potent anti-angiogenic activity
